From publication PMC5213423, “Identification of a Drug Targeting an Intrinsically Disordered Protein Involved in Pancreatic Adenocarcinoma” (Scientific Reports, 2017)
Where a name gives a salt, the structure may show the parent alone. Read-outs that look alike come from different tables or passages of the source.

Tests used:
[1] = biological target: T1, NUPR1 (Homo sapiens, UniProt O60356); experiment: Isothermal titration calorimetry (ITC) of compound binding to NUPR1; conditions: 25 °C; for Kd: 20 mM sodium phosphate pH 7, relative error is 20%
T1 construct: made in house; host or cells: E. coli
T1 sequence (O60356 1-82): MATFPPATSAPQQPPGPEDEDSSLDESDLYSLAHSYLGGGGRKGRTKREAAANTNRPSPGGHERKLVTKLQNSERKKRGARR
Description: Ligand binding to NUPR1 was determined with a high sensitivity isothermal titration calorimeter Auto-iTC200 (MicroCal–Malvern Instruments, Malvern UK). Protein samples and reference solutions were properly degassed and carefully loaded into the calorimetric cells to avoid bubble formation during stirring. Experiments were performed with freshly prepared buffer-exchanged protein solutions, at 25 °C in 20 mM sodium phosphate pH 7. NUPR1 20 μM solution in the calorimetric cell was titrated with 300–400 μM compound solution. A sequence of 19 injections of 2 μL volume was programmed with a stirring speed of 1000 rpm. The heat evolved after each ligand injection was obtained from the integral of the calorimetric signal. The heat due to the binding reaction was obtained as the difference between the reaction heat and the corresponding heat of dilution, the latter estimated as a constant value throughout the experiment, and included as an adjustable parameter in the analysis. Control experiments (compound injected into buffer) were performed under the same experimental conditions. The association constant (Ka) and the enthalpy change (ΔH) of the binding reaction were obtained through non-linear regression of experimental data to a model for a protein with a single ligand binding site. Experiments were performed in replicates and data were analyzed using in-house developed software implemented in Origin 7 (OriginLab, Northampton, MA).

[2] = biological target: T2, NUPR1/MSL1 interaction (Homo sapiens, UniProt O60356); experiment: Proximity ligation assay (PLA) of NUPR1-MSL1 interaction after Oxaliplatin-induced DNA damage; type: cell-based; conditions: 1 to 20 μM compound, Oxaliplatin 10 μM, 24 h
T2 construct: expressed in transfected cells; host or cells: MiaPaCa-2 (human pancreatic cancer cells)
T2 sequence (O60356 1-82): T1 sequence (O60356 1-82)
Description: MiaPaCa-2 cells were seeded on coverslips and transfected with 300 ng of DNA (NUPR1-Flag and MSL1-V5) using Fugene HDTM transfection reagent (Roche, Meylan, France). […] Cells were washed twice in PBS, fixed, permeabilized and saturated for 45 min before immunostaining with DuoLink kit (Olink Bioscience, Uppsala, Sweden) following the manufacturer’s protocol. Image acquisition was carried out on a Nikon Eclipse 90i fluorescence microscope (Nikon Instruments, Amsterdam, Netherlands). Images at 40x magnification were analyzed with ImageJ to count the number of red dots which represent NUPR1/MSL1 binding. The reduction in the number of red fluorescent dots is proportional to the inhibition of MSL1-NUPR1 interaction by Compound-15.

[3] = test system: MiaPaCa-2 cells; experiment: Cell viability assay (CellTiter-Blue), MiaPaCa-2
Description: (§2) Cells (10000 cells/well) were plated in 96-well plates with DMEM. Twenty-four hours later, the media were supplemented with 10 μM of Compound and were incubated for another additional six days. Each experiment was performed in duplicate and repeated at least three times. Cell viability was estimated after addition of the CellTiter-Blue viability reagent (Promega, Madrid, Spain) for 1 h according to the protocol provided by the supplier. Cell viability was measured on day 6 and normalized regarding untreated cells rates. Statistical significance was assumed at a p-value lower than 0.05.

[4] = test system: human PDAC-derived xenografts (MiaPaCa-2); experiment: Subcutaneous MiaPaCa-2 xenograft in NMRI-Nude mice; type: in vivo; conditions: for Tumor volume: start 400 mm^3
Description: NMRI-Foxn1^nu/Foxn1^nu mice were provided by Janvier Laboratories (Le Genest-Saint-Isle, France). Mice were kept within the Experimental Animal House of the Centre de Cancérologie de Marseille (CRCM) pôle Luminy. All experimental protocols were carried out in accordance with nationally approved guidelines for the treatment of laboratory animals. All experimental procedures on animals were approved by the Comité d’éthique de Marseille numéro 14. Ten millions MiaPaCa-2 cells were inoculated subcutaneously and mice were separated into 3 groups of 6 subjects each. Mice were treated daily with either physiologic serum, 5 mg/kg or 10 mg/kg of the compound when the tumor volume reached approximately 400 mm^3. Every 5 days, the weight and the tumors volumes were measured. Mice were sacrificed after 35 days of treatment.

[5] = test system: MiaPaCa-2 cells; experiment: Colony formation in soft agar (clonogenicity); type: cell-based, human; conditions: 10 μM compound
Description: Colony formation assay was performed in order to measure the in vitro survival ability of a single cell to grow into a colony in an anchorage-independent growth environment. Briefly, after treating MiaPaCa-2 cells with either the compounds or DMSO (as control) for 24 and 48 h, they were seeded in DMEM complete media at a density of 7 × 10^3 cells in 6-well plates containing a top layer of 0.7% agar and a bottom layer of 1% agar. Plates were incubated at 37 °C for 3 to 4 weeks and then stained with 0.2% crystal violet. […] Comparisons of treatment outcome were tested for statistical significance by using the t-test.

[6] = biological target: T1, NUPR1; experiment: 2D 1H-15N HSQC NMR cross-peak broadening of NUPR1 upon compound addition; type: binding; conditions: NUPR1 100 μM : compound 400 μM, 25 °C, pH 4.5
Description: The NMR data were acquired at 25 °C, pH 4.5 (acetate buffer), on a Bruker Avance DRX-500 spectrometer equipped with a triple-resonance probe and z-gradients. All spectra were referenced to external TSP.
The 2D ^1H-^15N heteronuclear single-quantum coherence (HSQC) spectra[42] were acquired in the phase sensitive mode for isolated ^15N-labelled NUPR1 (100 μM) or ^15N-labelled NUPR1 (100 μM) in the presence of the corresponding compound (400 μM). […] Frequency discrimination in the indirect dimensions was achieved by using the echo/antiecho-TPPI method. […] The carrier of the ^1H dimension was set at 8.00 ppm, and that of ^15N at 120 ppm. The spectral widths used were 10 and 35 ppm in the ^1H and ^15N dimensions, respectively. Water signal was suppressed with the WATERGATE sequence. Data were zero-filled to double the number of original points in both dimensions, apodized with shifted squared sine-bell functions in the two dimensions and Fourier transformed with the program TopSpin 1.2. Assignments were taken from those previously reported. The intensity of the signals from each row in the HSQC spectra was measured by using TopSpin 2.1 taking into account, as an internal reference, the intensity of the last residue of NUPR1. Only differences in intensity of a particular residue between spectra of the complex (NUPR1:Compound) and that of isolated NUPR1 larger than 10%, were considered significant.

[7] = test system: MiaPaCa-2 cells; experiment: Real-time iCELLigence impedance proliferation assay; type: cell-based, human; conditions: 10 μM Compound-15 vs 60 nM Gemcitabine, 4 μM Oxaliplatin
Description: Cell proliferation was monitored in real-time using the […] system E-Plate (ACEA Biosciences, San Diego, CA). Forty thousand MiaPaCa-2 cells were seeded in each well with fresh DMEM. […] Cells were incubated for another 3 days. The impedance value of each well was automatically monitored by the […] system for 3 days and expressed as a CI (cell index) value.

[8] = test system: MiaPaCa-2 cells; experiment: Wound healing (cell migration) assay; type: cell-based, human; conditions: 10 μM, after 48 h
Description: Cells (10000 cells/well) were seeded in 24-well plates and grown to confluence. […] Either fresh medium with 10 μM of the corresponding compound were added or DMSO (as control). Cell migration to the wounded region was observed using an automated fluorescence inverted microscope Leica DMI 6000B with MetaMorph MM AF analysis software (Leica Microsystems, Wetzlar, Germany). Images were captured at 0, 24 and 48 h to monitor the wound healing process. The wound areas were measured using ImageJ software (NIH, Bethesda, MD). Comparisons of treatment outcome were tested for statistical significance by using the t-test. Statistical significance was assumed at a p-value lower than 0.05.

[9] = test system: primary murine PDAC cell line WT; experiment: Cell viability assay, primary murine PDAC cells, NUPR1 wild-type (WT); type: cell-based, mouse; conditions: 6 days
Description: (§1) MiaPaCa-2 cells were obtained from ATCC (Manassas, VA) and maintained in Dulbecco’s Modified Eagle’s Medium (DMEM) (Invitrogen, Carlsbad, CA) supplemented with 10% FBS (Foetal Bovine Serum) at 37 °C with 5% CO2. MiaPaCa-2 cells were authenticated using Short Tandem Repeat analysis (LGC Standards GmbH, Wesel, Germany). […]in reagent (Polyplus-transfection, Illkirch, France) was used to perform siRNA transfections according to the manufacturer’s protocol. Scrambled siRNA targeting no known gene sequence was used as negative control. The sequence of NUPR1-specific siRNA-nupr1 r([…])dTdT was previously reported. Knock-out cells were established in the laboratory from a mice model of pancreatic cancer, known as Pdx1-Cre-Kras^G12D/INK4^flox/flox and for those nupr1 was deleted. These cells have been supplied with DMEM (4.5 g/L) and Glutamax (Life Technologies, Carlsbad, CA), supplemented with 10% of FBS.

[10] = test system: primary murine PDAC cell line NUPR1 KO; experiment: Cell viability assay, primary murine PDAC cells, NUPR1 knocked-out (KO); type: cell-based, mouse; conditions: 6 days
Description: as §1

[11] = test system: MiaPaCa-2 cells; experiment: Chemograms of Gemcitabine or Oxaliplatin with or without Compound-15
Description: as §2

## CN1CCN(CCCN2c3ccccc3Sc3ccc(C(F)(F)F)cc32)CC1 [Compound-15, Trifluoperazine dihydrochloride]
[1]
  Kd: 5.2 µM
[1]; pH 7
  ΔG (Gibbs energy of binding): -7.2 kcal/mol
  ΔH of binding: -1.1 kcal/mol
  −TΔS of binding: -6.1 kcal/mol
[2]
  NUPR1 and MSL1 interaction (PLA red dots): interfered in the NUPR1-MSL1 interaction
[3]; Homo sapiens, MIA PaCa-2, 144 h, read-out: Cell viability
  viability at 10 µM: 26 ± 7%
[4]; 5 mg/kg daily, two weeks
  Tumor volume increase compared to the control: 50%
  Tumor volume: 767 ± 196 mm^3
[4]; 10 mg/kg daily, two weeks
  Tumor volume: 558 ± 152 mm^3
[4]; 10 mg/kg daily, up to 4 weeks
  Tumor growth: rapidly, and almost completely, stopped
[5]
  Colony formation: completely inhibited colony formation
[6]
  Residues of NUPR1 with NMR-cross-peak broadening affected by binding: Ala33; Thr68
[7]
  Growth arrest in real-time proliferation compared with Oxaliplatin or Gemcitabine: stronger growth-arrest
[8]
  Distance migrated compared to Compound-free cells: 25%
[9]; Mus musculus, 144 h, WT murine cells
  viability at 10 µM: 35%
[9]; difference WT vs KO viability, 10 μM
  NUPR1-dependent effect: around 37%
[10]; Mus musculus, 144 h, NUPR1 KO murine cells
  viability at 10 µM: 72%
[10]; from KO cell viability, 10 μM
  NUPR1-independent killing effect: ~28%

## CN(C)CCC(c1ccccc1)c1ccccn1 (stereo not shown) [compound 10, Pheniramine maleate]
[1]
  Kd: 4.3 µM
[6]
  Residues of NUPR1 with NMR-cross-peak broadening affected by binding: Ser9; His62; Thr68

## O=C1[O][Pt]2([NH][C@@H]3CCCC[C@H]3[NH]2)[O]C1=O [Oxaliplatin]
[3]; MiaPaCa-2, 10 μM of each compound, 6 days, normalized to untreated cells
  Cell viability: 10 ± 2%
[11]; 4 μM Oxaliplatin alone
  Cell viability: 53 ± 0.4%
[11]; drug alone, MiaPaCa-2, 3 days
  IC50: 4 µM

## C[C@H](N)[C@H](O)c1ccc(O)c(O)c1 [Compound-8, Levonordefrin]
[1]
  Kd: 1.5 µM
[6]
  Residues of NUPR1 with NMR-cross-peak broadening affected by binding: Ala33; Thr68

## Fc1ccc(C(c2ccc(F)cc2)N2CCN(C/C=C/c3ccccc3)CC2)cc1 [Compound-6, Flunarizine dihydrochloride]
[1]
  Kd: 3.1 µM
[6]
  Residues of NUPR1 with NMR-cross-peak broadening affected by binding: Ala33; Thr68

## CN(C)[C@@H]1C(O)=C(C(N)=O)C(=O)[C@@]2(O)C(O)=C3C(=O)c4c(O)ccc(Cl)c4[C@@](C)(O)[C@H]3C[C@@H]12 [compound 14, Chlortetracycline hydrochloride]
[1]
  Kd: 1.5 µM
[6]
  Residues of NUPR1 with NMR-cross-peak broadening affected by binding: Ala33; Thr68

## COC(=O)[C@H]1[C@H]2C[C@@H]3c4[nH]c5cc(OC)ccc5c4CCN3C[C@H]2C[C@@H](OC(=O)c2cc(OC)c(OC)c(OC)c2)[C@@H]1OC [compound 4, Reserpine]
[1]
  Kd: 3.2 µM
[6]
  Residues of NUPR1 with NMR-cross-peak broadening affected by binding: Thr68

## CC(C)NCC(O)c1ccc(O)c(O)c1.Cl (single isomer, unassigned; (-)) [compound 5, (-)-Isoproterenol hydrochloride]
[1]
  Kd: 3.9 µM
[6]
  Residues of NUPR1 with NMR-cross-peak broadening affected by binding: Thr68

## Nc1ccn([C@@H]2O[C@H](CO)[C@@H](O)C2(F)F)c(=O)n1 [Gemcitabine]
[11]; Homo sapiens, MIA PaCa-2, 72 h, read-out: IC50 (concentration reducing cell viability to one half)
  IC50: 0.06 µM
[11]; Homo sapiens, MIA PaCa-2, read-out: Cell viability
  viability at 0.06 µM: 41 ± 0.4%

## CC(C)(C)c1ccc(C(O)CCCN2CCC(C(O)(c3ccccc3)c3ccccc3)CC2)cc1 (stereo not shown) [Compound-1, Terfenadine]
[1]
  Kd: 5 µM

## CC(C)(C)CC(C)(C)c1ccc(OCCOCC[N+](C)(C)Cc2ccccc2)cc1 [Compound-13, Benzethonium chloride]
[5]
  Colony formation: completely inhibited colony formation

## CC(C)NCC(O)c1ccc(O)c(O)c1.O=C(O)C(O)C(O)C(=O)O (single isomer, unassigned; (+)) [Compound-9, (+)-Isoproterenol (+)-bitartrate salt]
[1]
  Kd: 4 µM
[6]
  Residues of NUPR1 with NMR-cross-peak broadening affected by binding: Ser9; Ala10; Leu29; Ala33; Gly38; Thr68

## CC(C)N1CCN(c2ccc(OCC3COC(Cn4cncn4)(c4ccc(Cl)cc4Cl)O3)cc2)CC1 (stereo not shown) [Compound-11, Terconazole]
[6]
  Residues of NUPR1 with NMR-cross-peak broadening affected by binding: Thr68

## O=C(O)/C=C/c1ccc(O)c(O)c1 [compound 3, Caffeic acid]
[1]
  Kd: 2 µM
[6]
  Residues of NUPR1 with NMR-cross-peak broadening affected by binding: Ala33; Thr68

## CCCCN(CCCC)CCC(O)c1cc2c(Cl)cc(Cl)cc2c2cc(C(F)(F)F)ccc12 (stereo not shown) [Compound-7, Halofantrine hydrochloride]
[1]
  Kd: 3.3 µM
[6]
  Residues of NUPR1 with NMR-cross-peak broadening affected by binding: Thr68

## OCCN1CCN(CCCN2c3ccccc3Sc3ccc(C(F)(F)F)cc32)CC1 [Compound-2, Fluphenazine dihydrochloride]
[1]
  Kd: 2 µM
[6]
  Residues of NUPR1 with NMR-cross-peak broadening affected by binding: Thr68
